ChEMBL document CHEMBL5528028, “Discovery of benzopyridone cyanoacetates as new type of potential broad-spectrum antibacterial candidates” (Eur J Med Chem, 2024)
Values after ≈ are worked out from the molar mass of the structure shown.

Assays:
Format in all cases: functional
Staphylococcus aureus [1] = test: Antibacterial activity against Staphylococcus aureus ATCC 25923 assessed growth inhibition by micro broth dilution method
Pseudomonas aeruginosa [2] = test: Antibacterial activity against Pseudomonas aeruginosa ATCC 27853 assessed growth inhibition by micro broth dilution method
Pseudomonas aeruginosa [3] = test: Antibacterial activity against Pseudomonas aeruginosa assessed growth inhibition by micro broth dilution method
Escherichia coli [4] = test: Antibacterial activity against Escherichia coli assessed growth inhibition by micro broth dilution method
Staphylococcus aureus [5] = test: Antibacterial activity against methicillin-resistant Staphylococcus aureus assessed growth inhibition by micro broth dilution method
Enterococcus faecalis = test: Antibacterial activity against Enterococcus faecalis assessed growth inhibition by micro broth dilution method
Escherichia coli [6] = test: Antibacterial activity against Escherichia coli ATCC 25922 assessed growth inhibition by micro broth dilution method
Staphylococcus aureus [7] = test: Antibacterial activity against Staphylococcus aureus ATCC 29213 assessed growth inhibition by micro broth dilution method
Staphylococcus aureus [8] = test: Antibacterial activity against Staphylococcus aureus assessed growth inhibition by micro broth dilution method
Acinetobacter baumannii = test: Antibacterial activity against Acinetobacter baumannii assessed growth inhibition by micro broth dilution method
Klebsiella pneumoniae = test: Antibacterial activity against Klebsiella pneumonia assessed growth inhibition by micro broth dilution method

Compound: CCCn1cc(C(=O)OCC)c(=O)c2cc(F)c([C-](C#N)C(=O)OCC)cc21.[Na+] (configuration not stated)
- MIC (Staphylococcus aureus [1]): 2 µg/mL
- MIC (Pseudomonas aeruginosa [2]): 8 µg/mL
- MIC (Pseudomonas aeruginosa [3]): 8 µg/mL
- MIC (Escherichia coli [4]): 16 µg/mL
- MIC (Staphylococcus aureus [5]): 64 µg/mL
- MIC (Enterococcus faecalis): 16 µg/mL
- MIC (Escherichia coli [6]): 4 µg/mL
- MIC (Staphylococcus aureus [7]): 16 µg/mL
- MIC (Staphylococcus aureus [8]): 128 µg/mL
- MIC (Acinetobacter baumannii): 16 µg/mL
- MIC (Klebsiella pneumoniae): 16 µg/mL

Compound: CCOC(=O)c1cn(Cc2ccccc2)c2cc(F)c(F)cc2c1=O
- MIC (Staphylococcus aureus [1]): 256 µg/mL (≈ 746 µM)
- MIC (Pseudomonas aeruginosa [2]): 256 µg/mL (≈ 746 µM)
- MIC (Pseudomonas aeruginosa [3]): 256 µg/mL (≈ 746 µM)
- MIC (Escherichia coli [4]): 2 µg/mL (≈ 5.83 µM)
- MIC (Staphylococcus aureus [5]): 256 µg/mL (≈ 746 µM)
- MIC (Enterococcus faecalis): 128 µg/mL (≈ 373 µM)
- MIC (Escherichia coli [6]): 128 µg/mL (≈ 373 µM)
- MIC (Staphylococcus aureus [7]): 256 µg/mL (≈ 746 µM)
- MIC (Staphylococcus aureus [8]): 128 µg/mL (≈ 373 µM)
- MIC (Acinetobacter baumannii): 2 µg/mL (≈ 5.83 µM)
- MIC (Klebsiella pneumoniae): 256 µg/mL (≈ 746 µM)

Compound: CCOC(=O)c1cn(CC2CCC2)c2cc([C-](C#N)C(=O)OCC)c(F)cc2c1=O.[Na+] (configuration not stated)
- MIC (Staphylococcus aureus [1]): 4 µg/mL
- MIC (Pseudomonas aeruginosa [2]): 8 µg/mL
- MIC (Pseudomonas aeruginosa [3]): 16 µg/mL
- MIC (Escherichia coli [4]): 64 µg/mL
- MIC (Staphylococcus aureus [5]): 16 µg/mL
- MIC (Enterococcus faecalis): 2 µg/mL
- MIC (Escherichia coli [6]): 2 µg/mL
- MIC (Staphylococcus aureus [7]): 8 µg/mL
- MIC (Staphylococcus aureus [8]): 8 µg/mL
- MIC (Acinetobacter baumannii): 4 µg/mL
- MIC (Klebsiella pneumoniae): 8 µg/mL

Compound: CCOC(=O)C(C#N)c1cc2c(cc1F)c(=O)c(C(=O)O)cn2CC=C(C)C (configuration not stated)
- MIC (Staphylococcus aureus [1]): 4 µg/mL (≈ 10.4 µM)
- MIC (Pseudomonas aeruginosa [2]): 1 µg/mL (≈ 2.59 µM)
- MIC (Pseudomonas aeruginosa [3]): 8 µg/mL (≈ 20.7 µM)
- MIC (Escherichia coli [4]): 32 µg/mL (≈ 82.8 µM)
- MIC (Staphylococcus aureus [5]): 8 µg/mL (≈ 20.7 µM)
- MIC (Enterococcus faecalis): 64 µg/mL (≈ 166 µM)
- MIC (Escherichia coli [6]): 1 µg/mL (≈ 2.59 µM)
- MIC (Staphylococcus aureus [7]): 4 µg/mL (≈ 10.4 µM)
- MIC (Staphylococcus aureus [8]): 4 µg/mL (≈ 10.4 µM)
- MIC (Acinetobacter baumannii): 1 µg/mL (≈ 2.59 µM)
- MIC (Klebsiella pneumoniae): 0.25 µg/mL (≈ 0.647 µM)

Compound: CCOC(=O)C(C#N)c1cc2c(cc1F)c(=O)c(C(=O)O)cn2Cc1ccc(Cl)cc1Cl (configuration not stated)
- MIC (Staphylococcus aureus [1]): 1 µg/mL (≈ 2.1 µM)
- MIC (Pseudomonas aeruginosa [2]): 2 µg/mL (≈ 4.19 µM)
- MIC (Pseudomonas aeruginosa [3]): 4 µg/mL (≈ 8.38 µM)
- MIC (Escherichia coli [4]): 16 µg/mL (≈ 33.5 µM)
- MIC (Staphylococcus aureus [5]): 2 µg/mL (≈ 4.19 µM)
- MIC (Enterococcus faecalis): 8 µg/mL (≈ 16.8 µM)
- MIC (Escherichia coli [6]): 0.5 µg/mL (≈ 1.05 µM)
- MIC (Staphylococcus aureus [7]): 2 µg/mL (≈ 4.19 µM)
- MIC (Staphylococcus aureus [8]): 1 µg/mL (≈ 2.1 µM)
- MIC (Acinetobacter baumannii): 1 µg/mL (≈ 2.1 µM)
- MIC (Klebsiella pneumoniae): 0.25 µg/mL (≈ 0.524 µM)

Compound: CCOC(=O)c1cn(CC(=O)N2CCN(C(=O)OC(C)(C)C)CC2)c2cc(F)c(F)cc2c1=O
- MIC (Staphylococcus aureus [1]): 128 µg/mL (≈ 267 µM)
- MIC (Pseudomonas aeruginosa [2]): 32 µg/mL (≈ 66.7 µM)
- MIC (Pseudomonas aeruginosa [3]): 64 µg/mL (≈ 133 µM)
- MIC (Escherichia coli [4]): 4 µg/mL (≈ 8.34 µM)
- MIC (Staphylococcus aureus [5]): 64 µg/mL (≈ 133 µM)
- MIC (Enterococcus faecalis): 64 µg/mL (≈ 133 µM)
- MIC (Escherichia coli [6]): 64 µg/mL (≈ 133 µM)
- MIC (Staphylococcus aureus [7]): 64 µg/mL (≈ 133 µM)
- MIC (Staphylococcus aureus [8]): 256 µg/mL (≈ 534 µM)
- MIC (Acinetobacter baumannii): 64 µg/mL (≈ 133 µM)
- MIC (Klebsiella pneumoniae): 256 µg/mL (≈ 534 µM)

Compound: CCOC(=O)C(C#N)c1cc2c(cc1F)c(=O)c(C(=O)O)cn2Cc1ccc(F)cc1F (configuration not stated)
- MIC (Staphylococcus aureus [1]): 1 µg/mL (≈ 2.25 µM)
- MIC (Pseudomonas aeruginosa [2]): 2 µg/mL (≈ 4.5 µM)
- MIC (Pseudomonas aeruginosa [3]): 16 µg/mL (≈ 36 µM)
- MIC (Escherichia coli [4]): 16 µg/mL (≈ 36 µM)
- MIC (Staphylococcus aureus [5]): 8 µg/mL (≈ 18 µM)
- MIC (Enterococcus faecalis): 8 µg/mL (≈ 18 µM)
- MIC (Escherichia coli [6]): 0.5 µg/mL (≈ 1.13 µM)
- MIC (Staphylococcus aureus [7]): 4 µg/mL (≈ 9 µM)
- MIC (Staphylococcus aureus [8]): 4 µg/mL (≈ 9 µM)
- MIC (Acinetobacter baumannii): 2 µg/mL (≈ 4.5 µM)
- MIC (Klebsiella pneumoniae): 0.5 µg/mL (≈ 1.13 µM)
